The values below are quoted from earlier work in patent US20240335465A1 (University of Virginia Patent Foundation, priority 2021, published 2024).

For this series, the system named is cGAS. The conditions noted are these: Liu et al., 2018; cited from earlier work.

As for `O=C(c1cc(Cc2n[nH]c(=O)c3ccccc23)ccc1F)N1CCN(C(=O)C2CC2)CC1` [olaparib], the “cGAS-PARP1 interactions and DNA damage-induced nuclear cGAS translocation” value is on record as “blocked”.
